The text below walks through data of US10174050B2, “Spiroisoxazoline compounds having an activity potentiating the activity of an antibiotic” (priority 2012, dated 2019).

The subject of series [1] is macrophages infected by M. tuberculosis. In words: Potentiation of ethionamide cell test (HCS). Type of series: cell-based. The note with it: ligand concentration necessary to potentiate ten times the activity of ethionamide (inhibit 50% of bacterial growth), constant ethionamide 0.1 μg/mL (1/10th of its CMI99).
Series [2] is described as follows: physchem. Type of series: physicochemical. Particulars: pH 7.4, aqueous buffer, kinetic from dmso stock. The protocol: 40 μL of a 10 mM solution in DMSO of the sample are added to 1.96 mL MeOH or PBS at pH 7.4. The samples are then agitated during 24 h at RT, centrifuged during 5 min and then filtrated on filters of 0.45 μm pore size. 20 μL of each solution are then added to 180 μL MeOH and then analyzed by LC-MS. The solubility is determined as ratio of the surfaces of the mass signals PBS/MeOH.

In brackets after ≈: the same amount, converted by molar mass.

On to `O=C(CCC(F)(F)F)N1CCC2(CC1)CC(c1ccc3c(c1)OCO3)=NO2` [Compound 18], for which the EC50 (usually the concentration needed to bring the measured effect to its halfway point) in series [1] was found to be 1300 nM.
Consider `O=C(CCCC(F)(F)F)N1CCC2(CC1)CC(c1ccccc1)=NO2` [Compound 51], for which, in series [1], the EC50 came out at 1000 nM.
With `O=C(CCC(F)(F)F)N1CCC2(CC1)CC(Cc1ccccc1)=NO2` [Compound 29], the EC50 in series [1] is 20 nM.
As to `O=C(CCC(F)(F)F)N1CCC2(CC1)CC(c1ccccn1)=NO2` [Compound 31], in series [1], the EC50 is 150 nM.
On the same count and under the same terms, the same measure for `O=C(CCC(F)(F)F)N1CCC2(CC1)CC(c1cccc(C(F)(F)F)c1)=NO2` [Compound 23]: 400 nM.
As to `O=C(CCC(F)(F)F)N1CC2(CC(c3ccccc3)=NO2)C1` [Compound 5], the EC50 in series [1] turned out to be 110 nM.
In the case of `O=C(CCC(F)(F)F)N1CCC2(CC1)CC(c1ccc(F)cc1)=NO2` [Compound 22], in series [1], the EC50 amounted to 500 nM.
As for `O=C(CCC(F)(F)F)N1CCC2(CC1)CC(C1CCCC1)=NO2` [Compound 28], the 50% effective concentration (EC50) in series [1] was found to be 80 nM.
The same measure, in the same setting: the value for `O=C(CCC(F)(F)F)N1CCC2(CC(c3ccccc3)=NO2)C1` (stereo not shown) [Compound 4] was 530 nM; that for `CC(C)CCC(=O)N1CCC2(CC1)CC(c1ccccc1)=NO2` [Compound 32] was 5000 nM; that for `O=C(CCC(F)(F)F)N1CCC2(CC1)CC(C1CCCCC1)=NO2` [Compound 27] was 80 nM.
On the same count and under the same terms, the value for `CC(C)CCC(=O)N1CCC2(CC1)CC(c1ccccn1)=NO2` [Compound 45] was 1300 nM.
Turning to `Cc1ccc(C2=NOC3(CCN(C(=O)CCC(F)(F)F)CC3)C2)cc1` [Compound 11], the EC50 in series [1] came to 2500 nM.
In the case of `O=C(CCCC(F)(F)F)N1CCC2(CC1)CC(c1nccs1)=NO2` [Compound 9], in series [1], the EC50 worked out at 70 nM.
For the compound `COc1ccccc1C1=NOC2(CCN(C(=O)CCC(C)C)CC2)C1` [Compound 49], the EC50 in series [1] turned out to be 630 nM.
Turning to `O=C(CCC(F)(F)F)N1CCC2(CC1)CC(c1ccco1)=NO2` [Compound 30], the EC50 in series [1] came out at 50 nM.
Regarding `O=C(CCCC(F)(F)F)N1CCC2(CC1)CC(c1ccccc1Cl)=NO2` [Compound 50], the EC50 in series [1] was found to be 770 nM.
On to `CC(C)CCC(=O)N1CCC2(CC1)CC(c1ccccc1Cl)=NO2` [Compound 46], for which the EC50 in series [1] amounted to 1300 nM.
In the case of `O=C(CCC(F)(F)F)N1CCC2(CC1)CC(c1cccs1)=NO2` [Compound 6], the EC50 in series [1] amounted to 30 nM.
Same read-out and setting: the same measure for `O=C(CCC(F)(F)F)N1CCC2(CC1)CC(c1ccccc1Cl)=NO2` [Compound 20]: 30 nM.
Consider `O=C(CCC(F)(F)F)N1CCC2(CC1)CC(c1nccs1)=NO2` [Compound 7], for which the EC50 in series [1] was found to be 40 nM.
On the same count and under the same terms, the same measure for `CC(C)CCC(=O)N1CCC2(CC1)CC(c1cccs1)=NO2` [Compound 8]: 130 nM; for `COc1cccc(C2=NOC3(CCN(C(=O)CCC(F)(F)F)CC3)C2)c1` [Compound 15]: 290 nM.
`O=C(CCC(F)(F)F)N1CCC2(CC1)CC(c1ccccc1)=NO2` [Compound 10]: the solubility (commonly the dissolved amount per volume that the medium holds) at 24 h in series [2] is 150 µM (≈ 51.1 µg/mL). In addition, the EC50 in series [1] is 20 nM.
Consider `O=C(CCC(F)(F)F)N1CCC2(CC1)CC(c1ccc(Cl)cc1)=NO2` [Compound 21], for which the EC50 in series [1] turned out to be 5800 nM.
Regarding `O=C(CCc1ccccc1)N1CCC2(CC1)CC(c1ccccc1)=NO2` [Compound 59], the EC50 in series [1] was found to be 1000 nM.
On to `COc1ccccc1C1=NOC2(CCN(C(=O)CCC(F)(F)F)CC2)C1` [Compound 14], for which the 50% effective concentration (EC50) in series [1] was found to be 20 nM.
